In patent publication US20120270832A1, “KETONE ACCUMULATION INHIBITOR” (MITSUI SUGAR CO., LTD., priority 2008, published 2012):
“Also recorded” adds a separate entry of the source.

Key:
[1] = Drinking test: test drink intake after one hour of exercising; assay type: in vivo, human; conditions: for blood free fatty acid levels changes over time: FIG. 4; for blood lactic acid levels changes over time: FIG. 5; for blood total ketone bodies levels changes over time: FIG. 13; for amount of oxidized carbohydrate changes over time / amount of oxidized lipids (fat) changes over time: calculated from VO2 and VCO2 by Frayn's equation; for amount of oxidized carbohydrate changes over time: FIG. 7; for amount of oxidized lipids (fat) changes over time: FIG. 8; for respiratory quotient changes over time: calculated from oxygen intake and carbon dioxide excretion, FIG. 6; for lipid oxidation, overall finding: recognized from FIGS. 4, 5, 7 and 8; for blood glucose levels (blood sugar level) changes over time: male subjects with suspected metabolic syndrome, drink in 500 ml water taken after 1 h exercise at about 50% VO2 max, blood sampled 10-120 min after intake, FIG. 1
Description: To male subjects with suspected metabolic syndrome and 85 cm or more of abdominal circumferences who lack in exercise, the following test was conducted. […] The subjects, who had family histories of cardiopathy or type 2 diabetes and/or had dyslipidemia, were eliminated from the test. Palatinose or high-fructose corn syrup was dissolved in 500 ml of water so that its intake per kg of body weight could be 1.0 g of the solid, and sucralose, a high intensity sweetener, was dissolved in 500 ml of water so that its intake per kg of body weight could be 1.33 mg of the solid that gives the degree of sweetness between the high-fructose corn syrup and palatinose solutions, to prepare three kinds of test drinks. For these three kinds of drinks, drinking tests were conducted, respectively and each test was conducted at intervals of ten days or longer. The high-fructose corn syrup is composed of glucose and fructose, the same constituent sugars as sucrose and palatinose, and its calorie per the solid is 4 kcal/g which is the same value as that of sucrose and palatinose.
The method of physical measurement for the subjects was based on ACSM guideline (American College of Sports Medicine, 2001). Respiratory gas was collected and analyzed by a respiratory gas automatic analyzer (Oxycon Alpha, manufactured by Mijnhardt) every 30 seconds during the test. Maximal oxygen uptake (VO2max) was calculated by increasing exercise loading gradually with a bicycle ergometer (818E, manufactured by Monark).
The tests were conducted as a double-blind crossover tests and dietary restriction was imposed on the subjects from two days before the tests. All subjects were instructed to abstain from alcohol, caffeine, green tea and high-intensity exercising 24 hours before the tests. Moreover, they recorded food intake two days before the first tests and repeated the same food intake before the second tests. This is for standardizing of the food intake before the tests and for minimizing the change of glycogen storage. All subjects took the same food as the dinner a day before all tests (725 kcal, 60% of the energy from carbohydrate, 30% from lipid and 10% from protein). After an overnight (10 hours to 12 hours) fast, the tests were conducted. During the fasting period, they were permitted to take water freely.
In order to avoid the effect of circadian rhythm, the tests were started at the same time. After the 15 minutes rest, the first venous blood sampling was conducted. The subjects exercised for an hour with loading of about 50% of VO2 max by a bicycle ergometer. After exercising, blood sampling was conducted and they took the test drinks for 5 minutes. Blood sampling was conducted at time points of 10, 20, 30, 45, 60, 75, 90, 105 and 120 minutes after the test drink was taken in. The collected blood samples were submitted for various biochemical measurements. After the drink intake, their heart rates were continuously measured with an electrocardiograph (Dyan Scope, manufactured by Fukuda Denshi).
On the assumption that oxidation of proteins during exercising can be ignored, oxidation of total carbohydrates and lipids was calculated from VO2 and VCO2 using Frayn's equation. The VO2 and VCO2 represent oxygen intake and carbon dioxide excretion in L/min, respectively. Respiratory quotient (RQ) was calculated from oxygen intake and carbon dioxide excretion. Calorie consumption rate was calculated from RQ and VO2 using Lusk's equation.

[2] = into 100 g water at 20° C.; cited from earlier work

Row | Compound | blood insulin levels changes over time (insulin secretion) ([1]; drink intake after exercising, FIG. 2) | blood free fatty acid levels changes over time ([1]; drink intake after exercising) | blood lactic acid levels changes over time ([1]; drink intake after exercising) | blood neutral fat levels changes over time ([1]; drink intake after exercising, FIG. 9) | blood epinephrine levels changes over time ([1]; drink intake after exercising, FIG. 10) | blood nolepinephrine levels changes over time ([1]; drink intake after exercising, FIG. 11) | blood total ketone bodies levels changes over time ([1]; drink intake after exercising) | amount of oxidized carbohydrate changes over time ([1]; drink intake after exercising) | amount of oxidized lipids (fat) changes over time ([1]; drink intake after exercising) | respiratory quotient changes over time ([1]; drink intake after exercising) | lipid oxidation, overall finding ([1]; drink intake after exercising) | blood glucose levels (blood sugar level) changes over time [1] | blood 3-OHBA levels changes over time ([1]; drink intake after exercising, FIG. 12) | solubility into 100 g water [2]
1 | OC[C@H]1O[C@H](OC[C@H]2OC(O)(CO)[C@@H](O)[C@@H]2O)[C@H](O)[C@@H](O)[C@@H]1O (stereo partly shown) [palatinose, isomaltulose] | mild | between those in taking high-fructose corn syrup and in taking sucralose | between those in taking high-fructose corn syrup and in taking sucralose | no effect | no effect | no effect | dropped without their accumulation in blood; also recorded: inhibit accumulation of ketone bodies | between those of high-fructose corn syrup and sucralose | between those of high-fructose corn syrup and sucralose | between those in taking high-fructose corn syrup and in taking sucralose | rather difficult to prevent | rose slowly thereafter, surpassed that in the case of taking high-fructose corn syrup around 60 minutes thereafter, and continued maintaining a relatively high value |  | 
2 | OC[C@H]1O[C@H](O[C@]2(CCl)O[C@H](CCl)[C@@H](O)[C@@H]2O)[C@H](O)[C@@H](O)[C@H]1Cl [sucralose, reference compound] |  | the higher values were maintained | no change |  |  |  | rose | lower values | higher values | ~0.7 | maintained | did not rise | rose | 
3 | O.OC[C@H]1O[C@H](OC[C@H]2OC(O)(CO)[C@@H](O)[C@@H]2O)[C@H](O)[C@@H](O)[C@@H]1O (stereo partly shown) [Palatinose monohydrate] |  |  |  |  |  |  |  |  |  |  |  |  |  | 38.4 g
